From patent EP4678638A1, “NEW E3 UBIQUITIN LIGASE LIGAND, PROTEIN DEGRADATION AGENT AND USE THEREOF” (priority 2023, dated 2024)

Experiments:
Assay type in all cases: cell-based
Conditions in all cases: Table D16
[1] = molecular target: T1, IKZF1 (Homo sapiens, UniProt Q13422+Q96SW2); test: Western blot degradation of IKZF1 (hPBMC)
T1 construct: evaluate the effects of the compounds of the present disclosure on the expression of target proteins in cells; endogenous in cells; host or cells: hPBMC
T1 sequence (Q13422 whole entry): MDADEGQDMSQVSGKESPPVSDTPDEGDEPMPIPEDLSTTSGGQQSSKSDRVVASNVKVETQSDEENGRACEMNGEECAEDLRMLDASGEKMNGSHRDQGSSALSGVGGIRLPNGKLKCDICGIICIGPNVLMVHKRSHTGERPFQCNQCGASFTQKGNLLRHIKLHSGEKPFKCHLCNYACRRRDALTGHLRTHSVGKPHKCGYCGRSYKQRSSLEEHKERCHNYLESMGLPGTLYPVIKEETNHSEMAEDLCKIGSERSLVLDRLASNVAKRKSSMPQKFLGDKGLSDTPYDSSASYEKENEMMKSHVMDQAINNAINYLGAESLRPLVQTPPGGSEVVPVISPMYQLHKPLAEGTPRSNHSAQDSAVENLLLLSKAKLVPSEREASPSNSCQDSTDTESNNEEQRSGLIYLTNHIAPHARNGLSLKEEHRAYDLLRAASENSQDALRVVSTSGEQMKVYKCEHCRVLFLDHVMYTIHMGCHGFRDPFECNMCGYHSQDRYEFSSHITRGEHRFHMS
T1 sequence (Q96SW2 whole entry): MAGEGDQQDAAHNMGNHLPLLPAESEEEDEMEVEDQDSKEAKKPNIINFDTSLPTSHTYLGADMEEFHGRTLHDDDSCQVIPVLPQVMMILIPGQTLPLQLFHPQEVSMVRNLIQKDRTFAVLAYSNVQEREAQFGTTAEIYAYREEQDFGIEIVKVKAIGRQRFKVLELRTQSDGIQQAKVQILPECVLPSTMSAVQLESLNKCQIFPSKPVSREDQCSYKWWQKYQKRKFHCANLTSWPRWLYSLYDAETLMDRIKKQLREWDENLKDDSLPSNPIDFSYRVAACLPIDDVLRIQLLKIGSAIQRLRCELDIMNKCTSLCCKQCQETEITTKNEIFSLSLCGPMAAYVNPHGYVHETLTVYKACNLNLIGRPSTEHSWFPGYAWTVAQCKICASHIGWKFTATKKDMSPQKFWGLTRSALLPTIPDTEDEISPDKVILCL
T1 sequence (Q16531 whole entry partner): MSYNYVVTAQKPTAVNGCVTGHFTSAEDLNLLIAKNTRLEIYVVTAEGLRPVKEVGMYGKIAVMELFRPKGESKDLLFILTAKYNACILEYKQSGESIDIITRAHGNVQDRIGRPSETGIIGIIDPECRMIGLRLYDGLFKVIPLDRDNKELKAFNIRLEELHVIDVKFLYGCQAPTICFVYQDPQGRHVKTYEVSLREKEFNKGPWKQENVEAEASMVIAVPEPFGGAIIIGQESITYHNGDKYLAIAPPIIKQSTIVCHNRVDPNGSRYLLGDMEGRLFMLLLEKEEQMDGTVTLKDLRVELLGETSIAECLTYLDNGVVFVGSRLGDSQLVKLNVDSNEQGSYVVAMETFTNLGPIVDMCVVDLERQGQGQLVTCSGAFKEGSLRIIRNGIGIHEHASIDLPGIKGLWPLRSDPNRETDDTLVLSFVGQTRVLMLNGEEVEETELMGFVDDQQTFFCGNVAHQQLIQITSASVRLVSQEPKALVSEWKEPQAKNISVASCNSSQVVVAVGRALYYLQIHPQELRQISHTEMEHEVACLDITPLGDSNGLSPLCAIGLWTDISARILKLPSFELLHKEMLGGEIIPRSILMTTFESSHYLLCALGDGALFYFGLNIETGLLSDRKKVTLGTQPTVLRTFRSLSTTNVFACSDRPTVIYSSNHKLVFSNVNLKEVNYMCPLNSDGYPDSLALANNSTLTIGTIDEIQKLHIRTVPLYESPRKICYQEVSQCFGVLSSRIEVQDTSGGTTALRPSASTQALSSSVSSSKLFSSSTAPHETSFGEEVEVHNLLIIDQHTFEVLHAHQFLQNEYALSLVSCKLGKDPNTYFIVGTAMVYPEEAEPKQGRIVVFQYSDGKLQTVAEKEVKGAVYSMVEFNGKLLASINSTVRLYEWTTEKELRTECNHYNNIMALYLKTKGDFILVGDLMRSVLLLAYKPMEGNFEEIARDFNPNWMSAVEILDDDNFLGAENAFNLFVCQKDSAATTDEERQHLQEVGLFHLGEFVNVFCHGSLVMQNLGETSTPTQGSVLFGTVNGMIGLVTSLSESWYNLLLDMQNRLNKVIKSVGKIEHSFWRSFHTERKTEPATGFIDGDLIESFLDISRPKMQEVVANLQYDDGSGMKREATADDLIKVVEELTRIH
Summary of the method: (§1)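 After compound exposure, cells were harvested and lysates run on SDS-PAGE, transferred to nitrocellulose and probed with antibodies. Remaining target (%) was computed from band grayscale relative to an internal control protein and normalised; degradation (%) was 100% minus that.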

[2] = molecular target: T2, CK1a (Homo sapiens, UniProt P48729+Q96SW2); test: Western blot degradation of CK1a (hPBMC)
T2 construct: evaluate the effects of the compounds of the present disclosure on the expression of target proteins in cells; endogenous in cells; host or cells: hPBMC
T2 sequence (P48729 whole entry): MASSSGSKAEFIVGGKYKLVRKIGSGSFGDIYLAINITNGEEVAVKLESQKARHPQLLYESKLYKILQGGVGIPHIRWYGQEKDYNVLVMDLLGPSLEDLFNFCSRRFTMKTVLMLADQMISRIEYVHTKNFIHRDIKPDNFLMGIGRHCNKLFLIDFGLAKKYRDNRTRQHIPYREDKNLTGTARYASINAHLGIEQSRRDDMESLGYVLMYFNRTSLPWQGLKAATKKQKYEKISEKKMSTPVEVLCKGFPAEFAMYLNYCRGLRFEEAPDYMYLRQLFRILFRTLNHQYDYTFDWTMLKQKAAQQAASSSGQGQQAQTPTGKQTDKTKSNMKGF
T2 sequence (Q96SW2 whole entry): as the sequence (Q96SW2 whole entry) above
T2 sequence (Q16531 whole entry partner): as the sequence (Q16531 whole entry partner) above
Summary of the method: as §1

[3] = molecular target: T3, IKZF3 (Homo sapiens, UniProt Q96SW2+Q9UKT9); test: Western blot degradation of IKZF3 (hPBMC)
T3 construct: evaluate the effects of the compounds of the present disclosure on the expression of target proteins in cells; endogenous in cells; host or cells: hPBMC
T3 sequence (Q9UKT9 whole entry): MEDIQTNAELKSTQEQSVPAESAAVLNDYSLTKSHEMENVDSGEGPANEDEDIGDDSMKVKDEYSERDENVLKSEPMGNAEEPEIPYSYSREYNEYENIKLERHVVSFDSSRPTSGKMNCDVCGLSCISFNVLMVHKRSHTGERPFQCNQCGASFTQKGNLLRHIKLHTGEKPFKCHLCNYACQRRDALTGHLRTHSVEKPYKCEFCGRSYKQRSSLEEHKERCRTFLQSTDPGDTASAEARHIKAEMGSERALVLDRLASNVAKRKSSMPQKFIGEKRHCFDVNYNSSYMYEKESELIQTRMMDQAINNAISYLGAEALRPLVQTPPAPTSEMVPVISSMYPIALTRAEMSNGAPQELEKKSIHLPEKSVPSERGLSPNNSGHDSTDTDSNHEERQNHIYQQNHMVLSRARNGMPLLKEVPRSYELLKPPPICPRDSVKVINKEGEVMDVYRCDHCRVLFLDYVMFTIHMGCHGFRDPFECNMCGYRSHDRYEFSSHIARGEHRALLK
T3 sequence (Q96SW2 whole entry): as the sequence (Q96SW2 whole entry) above
T3 sequence (Q16531 whole entry partner): as the sequence (Q16531 whole entry partner) above
Summary of the method: as §1

[4] = molecular target: T4, GSPT1 (Homo sapiens, UniProt P15170+Q96SW2); test: Western blot degradation of GSPT1 (hPBMC)
T4 construct: evaluate the effects of the compounds of the present disclosure on the expression of target proteins in cells; endogenous in cells; host or cells: hPBMC
Summary of the method: as §1

[5] = molecular target: T5, IKZF2 (Homo sapiens, UniProt Q96SW2+Q9UKS7); test: Western blot degradation of IKZF2 (hPBMC)
T5 construct: evaluate the effects of the compounds of the present disclosure on the expression of target proteins in cells; endogenous in cells; host or cells: hPBMC
T5 sequence (Q9UKS7 whole entry): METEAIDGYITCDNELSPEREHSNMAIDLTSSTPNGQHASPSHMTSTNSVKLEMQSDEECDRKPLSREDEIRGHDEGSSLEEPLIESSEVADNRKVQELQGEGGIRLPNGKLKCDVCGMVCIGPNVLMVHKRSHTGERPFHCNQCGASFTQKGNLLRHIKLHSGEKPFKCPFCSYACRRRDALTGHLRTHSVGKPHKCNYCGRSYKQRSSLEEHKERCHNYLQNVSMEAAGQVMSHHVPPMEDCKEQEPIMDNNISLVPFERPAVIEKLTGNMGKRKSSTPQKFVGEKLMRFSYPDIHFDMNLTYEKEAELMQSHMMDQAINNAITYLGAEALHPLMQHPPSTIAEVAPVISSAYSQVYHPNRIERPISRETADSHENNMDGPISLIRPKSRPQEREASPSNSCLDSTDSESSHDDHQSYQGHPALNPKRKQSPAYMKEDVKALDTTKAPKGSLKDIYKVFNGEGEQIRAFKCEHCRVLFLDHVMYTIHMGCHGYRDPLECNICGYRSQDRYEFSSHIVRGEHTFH
T5 sequence (Q96SW2 whole entry): as the sequence (Q96SW2 whole entry) above
T5 sequence (Q16531 whole entry partner): as the sequence (Q16531 whole entry partner) above
Summary of the method: as §1

[6] = molecular target: T6, WEE1 (Homo sapiens, UniProt P30291+Q96SW2); test: Western blot degradation of WEE1 (hPBMC)
T6 construct: evaluate the effects of the compounds of the present disclosure on the expression of target proteins in cells; endogenous in cells; host or cells: hPBMC
T6 sequence (P30291 whole entry): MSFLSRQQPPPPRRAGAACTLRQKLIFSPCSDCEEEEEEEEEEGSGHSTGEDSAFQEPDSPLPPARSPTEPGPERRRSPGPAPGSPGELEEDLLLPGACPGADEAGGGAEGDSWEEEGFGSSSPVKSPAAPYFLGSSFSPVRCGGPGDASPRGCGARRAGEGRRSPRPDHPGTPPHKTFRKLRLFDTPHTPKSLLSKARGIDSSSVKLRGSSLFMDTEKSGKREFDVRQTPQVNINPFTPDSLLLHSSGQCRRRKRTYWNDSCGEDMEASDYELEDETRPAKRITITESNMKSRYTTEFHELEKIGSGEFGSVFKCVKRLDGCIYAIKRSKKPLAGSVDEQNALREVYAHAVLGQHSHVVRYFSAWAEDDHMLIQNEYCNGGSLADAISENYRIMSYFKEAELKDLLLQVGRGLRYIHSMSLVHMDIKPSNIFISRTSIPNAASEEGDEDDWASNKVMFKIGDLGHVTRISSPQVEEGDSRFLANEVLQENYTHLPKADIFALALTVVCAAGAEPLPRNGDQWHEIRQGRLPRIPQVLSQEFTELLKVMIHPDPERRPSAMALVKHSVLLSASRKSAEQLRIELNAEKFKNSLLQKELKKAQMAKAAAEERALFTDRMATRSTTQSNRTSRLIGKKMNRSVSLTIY
T6 sequence (Q96SW2 whole entry): as the sequence (Q96SW2 whole entry) above
T6 sequence (Q16531 whole entry partner): as the sequence (Q16531 whole entry partner) above
Summary of the method: as §1

Structure (SMILES) | Degradation of substrate protein IKZF1 (substrate protein remaining %) [1] | Degradation of substrate protein CKla (substrate protein remaining %) [2] | Degradation of substrate protein IKZF3 (substrate protein remaining %) [3] | Degradation of substrate protein GSPT1 (substrate protein remaining %) [4] | Degradation of substrate protein IKZF2 (substrate protein remaining %) [5] | Degradation of substrate protein WEE1 (substrate protein remaining %) [6]
O=C1CCC(Nc2ncc(CO)cn2)C(=O)N1 (stereo not drawn) [GT-07809, 3-((5-(Hydroxymethyl)pyrimidin-2-yl)amino)piperidine-2,6-dione] | A (A is defined as 0% ≤ substrate protein remaining % ≤ 80%) | B (B is defined as substrate protein remaining % > 80%) | A (A is defined as 0% ≤ substrate protein remaining % ≤ 80%) | B (B is defined as substrate protein remaining % > 80%) | A (A is defined as 0% ≤ substrate protein remaining % ≤ 80%) | A (A is defined as 0% ≤ substrate protein remaining % ≤ 80%)
NCc1ccc(N2CCC(=O)NC2=O)cn1 [GT-07048, 1-(6-(Aminomethyl)pyridin-3-yl)dihydropyrimidine-2,4(1H,3H)-dione] | A (A is defined as 0% ≤ substrate protein remaining % ≤ 80%) | A (A is defined as 0% ≤ substrate protein remaining % ≤ 80%) | A (A is defined as 0% ≤ substrate protein remaining % ≤ 80%) | A (A is defined as 0% ≤ substrate protein remaining % ≤ 80%) | A (A is defined as 0% ≤ substrate protein remaining % ≤ 80%) | B (B is defined as substrate protein remaining % > 80%)
O=C1CCC(c2ccc(CO)nc2)C(=O)N1 (stereo not drawn) [GT-07010, 3-(6-(Hydroxymethyl)pyridin-3-yl)piperidine-2,6-dione] | B (B is defined as substrate protein remaining % > 80%) | A (A is defined as 0% ≤ substrate protein remaining % ≤ 80%) | A (A is defined as 0% ≤ substrate protein remaining % ≤ 80%) | A (A is defined as 0% ≤ substrate protein remaining % ≤ 80%) | B (B is defined as substrate protein remaining % > 80%) | B (B is defined as substrate protein remaining % > 80%)
O=C1CCC(c2ccc(CO)nc2F)C(=O)N1 (stereo not drawn) [GT-07558, 3-(2-Fluoro-6-(hydroxymethyl)pyridin-3-yl)piperidine-2,6-dione] | A (A is defined as 0% ≤ substrate protein remaining % ≤ 80%) | A (A is defined as 0% ≤ substrate protein remaining % ≤ 80%) | B (B is defined as substrate protein remaining % > 80%) | B (B is defined as substrate protein remaining % > 80%) | B (B is defined as substrate protein remaining % > 80%) | A (A is defined as 0% ≤ substrate protein remaining % ≤ 80%)
O=C1CCN(c2cncc(CCl)n2)C(=O)N1 [GT-07728, 1-(6-(Chloromethyl)pyrazin-2-yl)dihydropyrimidine-2,4(1H,3H)-dione] | A (A is defined as 0% ≤ substrate protein remaining % ≤ 80%) | B (B is defined as substrate protein remaining % > 80%) | A (A is defined as 0% ≤ substrate protein remaining % ≤ 80%) | B (B is defined as substrate protein remaining % > 80%) | A (A is defined as 0% ≤ substrate protein remaining % ≤ 80%) | A (A is defined as 0% ≤ substrate protein remaining % ≤ 80%)
